Results on two molecules are retold here after paper PMC12295306, “Gut Microbial Postbiotics as Potential Therapeutics for Lymphoma: Proteomics Insights of the Synergistic Effects of Nisin and Urolithin B Against Human Lymphoma Cells” (International Journal of Molecular Sciences, 2025).

This assay concerns HKB-11 lymphoma cells. Description: Label-free bottom-up LC-MS proteomics, differentially expressed proteins. Type of assay: cell-based, human. The procedure: The HKB-11 lymphoma cells were placed in 6-well plates at a density of 3.0 × 10^6 cells/well and incubated overnight at 37 °C in 5% CO2. […] Treatments were performed in triplicate and incubated for 24 h under the same conditions. Following incubation, each flask of cells was subjected to a 0.25% w/v trypsin treatment for 4 min at 37 °C, and the cell culture medium was collected. Additionally, an equal volume of DMEM F-12 medium (containing 10% FBS) was added before mixing with the previously collected media to neutralise the trypsin. The cells were spun in a centrifuge at 500× g for 5 min at RT. The cell pellets were washed twice with ice-cold PBS and spun again at 500× g for 5 min. These cell pellets were then suspended in a lysis buffer that included 1 μL of universal nuclease (Easypep Mini Kit) (Thermo Fisher Scientific, Sydney, NSW, Australia) and supplemented with Halt™ Protease and Phosphatase Inhibitor Cocktail in a 1:100 ratio (Thermo Fisher Scientific, Sydney, NSW, Australia). The cells were gently pipetted 10–15 times to reduce the sample’s viscosity and then placed on ice for 20 min. The lysate was centrifuged at 14,000 rpm for 20 min at 4 °C, and the resulting liquid was collected.
The Pierce™ Rapid Gold BCA Protein Assay Kit (#A53226, Thermo Fisher Scientific, Sydney, NSW, Australia) was used to determine the protein concentration of the cell lysate in triplicate, using a bovine serum albumin (BSA) standard, following the manufacturer’s protocol. In brief, 1 μL of each sample replicate was diluted 1:20 in Milli-Q water, along with 20 μL of each standard, and then placed in a 96-well plate with 200 μL of working reagent in each well. Samples were diluted to a concentration within the 20–2000 μg/mL working range. The plate was thoroughly mixed on a plate shaker for 30 s and incubated at RT for 5 min, and then the absorbance was measured within 20 min at 480 nm using a microplate spectrophotometer (BMG CLARIOstar, Melbourne, VIC, Australia). The blank absorbance was subtracted from all other readings of standards and samples, and the sample concentration was determined using the established BSA standard calibration curve. The samples were then stored at −80 °C for further analysis.
The protein samples (100 μg) were subjected to chemical and enzymatic sample processing using the EasyPep™ Mini MS Sample Prep Kit following the manufacturer’s instructions (Thermo Fisher Scientific, Sydney, NSW, Australia) and as reported in the literature. Briefly, the sample volume was adjusted to 100 μL using a lysis buffer in a microcentrifuge tube. Subsequently, the reduction and alkylation solutions (50 μL each) were introduced, gently mixed, and incubated at 95 °C with a heat block for 10 min. The samples were allowed to cool to RT, after which 50 μL of the reconstituted trypsin/lys-C protease mixture was added to each sample and incubated with shaking at 37 °C for 3 h. Following incubation, 50 μL of a digestion stop solution was gently mixed into the samples. Peptide clean-up columns were used to remove both hydrophilic and hydrophobic impurities. The resulting clean peptide samples were dehydrated using a vacuum centrifuge and reconstituted in 100 μL of a 0.1% formic acid solution in water for LC–MS analysis. Subsequently, these samples were carefully transferred to maximum recovery sample vials (Waters Corp., Milford, MA, USA).
Label-free, bottom-up proteomic quantification was performed using a micro high-performance liquid chromatography system (Waters M-Class) coupled with a SCIEX™ TripleTOF® 6600 quadrupole time-of-flight mass spectrometer (SCIEX, Framingham, MA, USA), operated in positive electrospray ionisation mode (ESI+). […]

The mark [1] stands for this setting: HKB-11, UB 300 μM, 24 h, vs untreated control, Q ≤ 0.05.
[2] abbreviates: HKB-11, N 3200 μM, 24 h, vs untreated control, Q ≤ 0.05.

On to `O=c1oc2cc(O)ccc2c2ccccc12` [UB, Urolithin B], for which, under setting [1], the “Log2FC APOC3 (Apolipoprotein C-III)” value came out at 2.04, the “Log2FC C4BPA (C4b-binding protein alpha chain)” value came to 4.39, the “Log2FC CLEC11A (C-type lectin domain family 11 member A)” value is reported as 3.06 and the “Log2FC COX6C (Cytochrome c oxidase subunit 6C)” value turned out to be 2.07. For the same molecule, under setting [1], the “Log2FC COX7C (Cytochrome c oxidase subunit 7C, mitochondrial)” value was determined as 2.08; the “Log2FC FGB (Fibrinogen beta chain)” value was 2.14; the “Log2FC GSN (Gelsolin)” value came to 2.26; the “Log2FC HBD (Haemoglobin subunit delta; Haemoglobin subunit beta)” value stood at 5.94. Under setting [1], the “Log2FC HBE1 (Haemoglobin subunit epsilon; gam1; gamma-2)” value was determined as 5.63, the “Log2FC ITIH2 (Inter-alpha-trypsin inhibitor heavy chain H2)” value worked out at 2.76, the “Log2FC MAD2L1 (Mitotic spindle assembly checkpoint protein MAD2A)” value is listed as −1.45 and the “Log2FC MT-CO2 (Cytochrome c oxidase subunit 2)” value was 2.34. Besides, under setting [1], the “Log2FC MT-ND4 (NADH-ubiquinone oxidoreductase chain 4)” value stood at 2.24, the “Log2FC NDUFA11 (NADH dehydrogenase [ubiquinone] 1 alpha subcomplex subunit 11)” value is 2.18, the “Log2FC PCNA (Proliferating cell nuclear antigen)” value was −0.63 and the “Log2FC PSME3 (Proteasome activator complex subunit 3)” value is reported as −0.59. Under setting [1], the “Log2FC SAMM50 (Sorting and assembly machinery component 50 homolog)” value is reported as 2.01; the “Log2FC UBE2E1 (Ubiquitin-conjugating enzyme E2 E1; E2 E3; E2 E2)” value is on record as −1.69; the “Log2FC UBE2S (Ubiquitin-conjugating enzyme E2 S)” value is listed as −1.21.
“Nisin (ITSISLCTPGCKTGALMGCNMKTATCHCSIHVSK; Lantibiotic nisin-A; UniProt P13068 24-57, looked up) [34-amino-acid lantibiotic peptide (bacteriocin) produced by Lactococcus lactis; purchased]”: under setting [2], the “Log2FC CDK4 (Cyclin-dependent kinase 4)” value is on record as −1.26, the “Log2FC CTNNA1 (Catenin alpha-1)” value was −0.97, the “Log2FC HDAC1 (Histone deacetylase 1)” value is −0.67 and the “Log2FC LARP1 (La-related protein 1)” value is listed as −1.27. Under setting [2], the “Log2FC MAPK14 (Mitogen-activated protein kinase 14)” value is −0.80; the “Log2FC NUP62 (Nuclear pore glycoprotein p62)” value was −0.60; the “Log2FC POLR2E (DNA-directed RNA polymerases I, II, and III subunit RPABC1)” value was −0.62; the “Log2FC POLR2G (DNA-directed RNA Polymerase II subunit RPB7)” value was −0.63. Further, under setting [2], the “Log2FC POLR2H (DNA-directed RNA polymerases I, II, and III subunit RPABC3)” value is listed as −0.59; the “Log2FC PPP1R14B (Protein phosphatase 1 regulatory subunit 14B)” value is −0.93; the “Log2FC PRC1 (Protein regulator of cytokinesis 1)” value is on record as −0.72; the “Log2FC RFC1 (Replication factor C subunit 1)” value was −0.85. For the same molecule, under setting [2], the “Log2FC RFC2 (Replication factor C subunit 2)” value is −0.59, the “Log2FC SRPK2 (SRSF protein kinase 2)” value is −0.70 and the “Log2FC TYMS (Thymidylate synthase)” value is recorded as −1.54. For the same molecule, the “Log2FC PCNA” value (HKB-11, N treatment (3200 µM), 24 h, vs untreated control) is −0.63. The “Log2FC PLPBP (Pyridoxal phosphate homeostasis protein)” value (HKB-11, Nisin_3.2 / Control, Qvalue 0.00903294) was 0.58. In addition, the “Log2FC THOC3 (THO complex subunit 3)” value (HKB-11, Nisin_3.2 / Control, Qvalue 0.0139626) is -0.58. The “Log2FC MAZ (Myc-associated zinc finger protein)” value (HKB-11, Nisin_3.2 / Control, Qvalue 0.0377318) is -0.58. For the same molecule, the “Log2FC TXNDC9 (Thioredoxin domain-containing protein 9)” value (HKB-11, Nisin_3.2 / Control, Qvalue 0.0383948) was -0.58.
